Measurements from PubChem BioAssay (NCI).
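Method: 48-hour compound exposure of cells in 96-well plates, five concentrations, linear interpolation of endpoints. GI50 is the concentration that inhibits growth by half. At the TGI there is no net growth.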

How the values were obtained:
Test in all cases: NCI tumour cell line growth inhibition, 48 h
[1] = test system: RXF 393 renal
[2] = test system: SF-295 CNS
[3] = test system: A498 renal
[4] = test system: 786-0 renal
[5] = test system: DU-145 prostate
[6] = test system: CAKI-1 renal
[7] = test system: MDA-MB-231 breast
[8] = test system: NCI-H226 lung
[9] = test system: HL-60(TB) leukemia
[10] = test system: NCI/ADR-RES ovarian
[11] = test system: OVCAR-5 ovarian
[12] = test system: HS 578T breast
[13] = test system: BT-549 breast
[14] = test system: SF-539 CNS
[15] = test system: UO-31 renal
[16] = test system: SK-MEL-5 melanoma
[17] = test system: U251 CNS
[18] = test system: K-562 leukemia
[19] = test system: LOX IMVI melanoma
[20] = test system: HCT-15 colon
[21] = test system: A549 NSCLC
[22] = test system: KM12 colon
[23] = test system: UACC-257 melanoma
[24] = test system: SK-MEL-28 melanoma
[25] = test system: ACHN renal
[26] = test system: OVCAR-3 ovarian
[27] = test system: T-47D breast
[28] = test system: SR leukemia
[29] = test system: TK-10 renal
[30] = test system: OVCAR-8 ovarian
[31] = test system: EKVX NSCLC
[32] = test system: PC-3 prostate
[33] = test system: NCI-H460 lung
[34] = test system: COLO 205 colon
[35] = test system: SNB-75 CNS
[36] = test system: UACC-62 melanoma
[37] = test system: SW-620 colon
[38] = test system: IGROV1 ovarian
[39] = test system: MALME-3M melanoma
[40] = test system: NCI-H23 lung
[41] = test system: CCRF-CEM leukemia
[42] = test system: HCT-116 colon
[43] = test system: HCC-2998 colon
[44] = test system: OVCAR-4 ovarian
[45] = test system: MCF7 breast
[46] = test system: HOP-62 NSCLC
[47] = test system: NCI-H522 lung
[48] = test system: SF-268 CNS
[49] = test system: RPMI-8226 leukemia
[50] = test system: HT29 colon
[51] = test system: M14 melanoma
[52] = test system: SN12C renal
[53] = test system: SNB-19 CNS
[54] = test system: HOP-92 NSCLC
[55] = test system: SK-OV-3 ovarian
[56] = test system: MDA-MB-435

CN(C)c1ccc(-c2ccc(-c3ccc(C(=N)N)cc3)s2)cc1
GI50 [1]: 1.81 µM
TGI [1]: 3.99 µM
GI50 [2]: 1.9 µM
TGI [2]: 3.61 µM
GI50 [3]: 0.0155 µM
TGI [3]: 0.0866 µM
GI50 [4]: 2.21 µM
TGI [4]: 5.06 µM
GI50 [5]: 1.8 µM
TGI [5]: 3.37 µM
GI50 [6]: 1.79 µM
TGI [6]: 3.77 µM
GI50 [7]: 1.81 µM
TGI [7]: 3.57 µM
GI50 [8]: 32.6 µM
TGI [8]: > 100 µM
GI50 [9]: 2.03 µM
TGI [9]: 4.57 µM
GI50 [10]: 2.35 µM
TGI [10]: 5.45 µM
GI50 [11]: 1.73 µM
TGI [11]: 3.38 µM
GI50 [12]: 2.14 µM
TGI [12]: 5.19 µM
GI50 [13]: 21 µM
TGI [13]: 78.3 µM
GI50 [14]: 1.76 µM
TGI [14]: 3.38 µM
GI50 [15]: 1.64 µM
TGI [15]: 3.22 µM

Cc1cn(-c2cc(F)cc(NC(=O)c3ccc(C)c(Nc4nccc(-c5cccnc5)n4)c3)c2)cn1
GI50 [3]: > 100 µM
TGI [3]: > 100 µM
GI50 [16]: > 100 µM
TGI [16]: > 100 µM
GI50 [9]: > 100 µM
TGI [9]: > 100 µM

CC1(C)CC2C(=O)c3ccccc3NC2c2ccccc21 (stereo unspecified)
TGI [17]: > 100 µM
TGI [1]: 8.58 µM
TGI [18]: > 90.6 µM
TGI [19]: > 100 µM
TGI [2]: > 22.9 µM
TGI [20]: > 100 µM
TGI [21]: > 100 µM
TGI [3]: > 100 µM
TGI [22]: > 81.3 µM
TGI [16]: 26.7 µM
TGI [23]: > 100 µM
TGI [24]: > 100 µM
TGI [25]: > 100 µM
TGI [26]: > 100 µM
TGI [27]: > 100 µM
TGI [28]: > 100 µM
TGI [29]: > 100 µM
TGI [30]: > 100 µM
TGI [31]: > 100 µM
TGI [4]: > 100 µM
TGI [32]: > 100 µM
TGI [33]: > 100 µM
TGI [34]: 22.1 µM
TGI [35]: > 100 µM
TGI [36]: > 100 µM
TGI [37]: > 100 µM
TGI [38]: > 100 µM
TGI [39]: > 100 µM
TGI [40]: > 64.8 µM
TGI [41]: > 100 µM
TGI [5]: > 100 µM
TGI [42]: > 100 µM
TGI [43]: > 100 µM
TGI [44]: > 100 µM
TGI [45]: > 100 µM
TGI [6]: > 100 µM
TGI [46]: > 100 µM
TGI [47]: 4.49 µM
TGI [8]: > 100 µM
TGI [48]: > 100 µM
TGI [9]: 32.6 µM
TGI [49]: 14.4 µM
TGI [10]: > 100 µM
TGI [11]: > 100 µM
TGI [50]: > 33.2 µM
TGI [12]: 6.99 µM
TGI [13]: > 100 µM
TGI [51]: > 100 µM
TGI [52]: > 100 µM
TGI [53]: > 100 µM
TGI [54]: > 100 µM
TGI [14]: > 22.8 µM
TGI [15]: > 67.2 µM

OC(c1cc2ccc(C(F)(F)F)cc2c2cc(C(F)(F)F)ccc12)C1CCCCN1 (stereo unspecified)
GI50 [2]: 1.83 µM
TGI [2]: 3.41 µM
TGI [21]: 3.26 µM
TGI [16]: 2.89 µM
TGI [24]: 3.36 µM
TGI [25]: 2.62 µM
TGI [28]: 4.99 µM
TGI [29]: 3.71 µM
GI50 [30]: 1.86 µM
TGI [30]: 3.74 µM
TGI [4]: 2.98 µM
TGI [32]: 2.92 µM
TGI [34]: 3.05 µM
TGI [35]: 2.57 µM
TGI [36]: 3.49 µM
TGI [37]: 2.84 µM
TGI [39]: 1.5 µM
TGI [5]: 3.21 µM
TGI [42]: 2.8 µM
TGI [43]: 2.62 µM
TGI [6]: 3.13 µM
TGI [7]: 3.2 µM
TGI [47]: 3.16 µM
TGI [9]: > 100 µM
TGI [11]: 3.18 µM
TGI [50]: 3.4 µM
TGI [52]: 3.26 µM
TGI [54]: 3.19 µM
TGI [55]: 3.82 µM
TGI [15]: 2.71 µM

C=C(CNCCc1ccc(O)cc1)[C@@H]1CC[C@]2(COC3CCCCO3)CC[C@]3(C)[C@H](CC[C@@H]4[C@@]5(C)CCC(NCCO)C(C)(C)[C@@H]5CC[C@]43C)[C@@H]12 (stereo partly specified)
GI50 [20]: 0.39 µM
TGI [20]: 1.49 µM
GI50 [3]: 1.33 µM
TGI [3]: 2.72 µM
GI50 [25]: 1.64 µM
TGI [25]: 3.04 µM
GI50 [26]: 1.28 µM
TGI [26]: 2.77 µM
GI50 [33]: 0.339 µM
TGI [33]: 1.07 µM
GI50 [56]: 1.35 µM
TGI [56]: 2.65 µM
GI50 [37]: 0.211 µM
TGI [37]: 0.453 µM
GI50 [5]: 1.25 µM
TGI [5]: 2.58 µM
GI50 [44]: 1.39 µM
TGI [44]: 2.82 µM
GI50 [6]: 1.52 µM
TGI [6]: 2.86 µM
GI50 [11]: 1.67 µM
TGI [11]: 3.13 µM
